Measured values reported in patent US7122184B2, “Specific monoclonal antibody against terbinafine” (Novartis AG, priority 2000, dated 2006).

Tests used:
[1] = tested on: purified antibodies from hybridoma cell line LAM-JA; assay: Competitive ELISA for terbinafine derivatives (crossreactivity); type: binding, mice; settings: for Inhibition (%) at terbinafine concentration (μg/ml) 0.0001: competitor 0.0001 μg/ml; for Inhibition (%) at terbinafine concentration (μg/ml) 0.0001 / Inhibition (%) at terbinafine concentration (μg/ml) 0.001 / Inhibition (%) at terbinafine concentration (μg/ml) 0.01 / Inhibition (%) at terbinafine concentration (μg/ml) 0.1 / Inhibition (%) at terbinafine concentration (μg/ml) 1 / Inhibition (%) at terbinafine concentration (μg/ml) 10: mAb LAM-JA binding to terbinafine-BSA conjugate; for Inhibition (%) at terbinafine concentration (μg/ml) 0.001: competitor 0.001 μg/ml; for Inhibition (%) at terbinafine concentration (μg/ml) 0.01: competitor 0.01 μg/ml; for Inhibition (%) at terbinafine concentration (μg/ml) 0.1: competitor 0.1 μg/ml; for Inhibition (%) at terbinafine concentration (μg/ml) 1: competitor 1 μg/ml; for Inhibition (%) at terbinafine concentration (μg/ml) 10: competitor 10 μg/ml; for % crossreactivity: relative to terbinafine at B/B0=50%, calculated from FIG. 1, mAb LAM-JA
Source text: The antibodies of the invention are screened and characterized in conventional manner, e.g. according to their ability to distinguish between terbinafine and its metabolites and derivatives, e.g. by determination of relative cross-reactivity. […] (1994), Stockton Press, p. 89). Relative crossreactivity is the concentration of analyte giving 50% at the point where the reduction in signal corresponds to 50% of the signal achieved in the absence of analyte (ratio B/B0 of 50%), as a percentage of the analyte concentration giving the same fall in signal.
Microtiter plates are coated with 5 μg/ml terbinafine hydrochloride—protein (BSA) conjugate in carbonate buffer overnight at 4°, then saturated with blocking reagent [SuperBloc® buffer (Pierce)] and washed 3× with 0.05% (v/v) PBS-TWEEN® (polyoxyethylene 20 sorbitan monoleate). The hybridoma supernatants to be screened are diluted in a 1% (w/v) solution of BSA in PBS-TWEEN® (polyoxyethylene 20 sorbitan monoleate), and incubated for 2 hours at 37°. Level of bound antibody is measured by anti-mouse IgG rabbit immunoglobulin coupled to horseradish peroxidase with OPD as the substrate. After incubation for one hour at room temperature the enzymatic substrate is hydrolyzed and absorbance at 490/650 nm is measured after 15 minutes incubation in the dark.
The direct ELISA according to Example 3 above is converted to a competitive ELISA wherein a competitor is added to the monoclonal antibody solution, and binding of the mAB to the conjugate in the presence and absence of the competitor is measured. Standard curves to determine cross-reactivity of a selected antibody to terbinafine and its derivatives are prepared using solutions containing known concentrations of terbinafine and appropriate derivatives (e.g. 10 μ/ml to 0.0001 μg/ml in buffer).
The result of such competitive assay for the purified antibodies from hybridoma cell line LAM-JA (where the immunogen used was carboxy-terbinafine coupled to OVA), is as follows:
The measurement of antibody response to substances other than the analyte is the crossreactivity. It may be “expressed as the point where the reduction in signal corresponds to 50% of the signal achieved in the absence of analyte (B/B0=50%), as a percentage of the analyte concentration giving the same fall in signal” [The Immunoassay Handbook, David Wild, Stockton Press, USA, 1994].
% crossreactivity is calculated as follows from FIG. 1: […]

[2] = HPLC and UV detection of terbinafine metabolites in the nail matrix; settings: HPLC with UV detection
Source text: Thus, in relation to the cross-reactivities of the antibodies of the invention with the above metabolites (see Example 4), no detection interferences are likely to be encountered with terbinafine in nails.

| Structure (SMILES) | Inhibition (%) at terbinafine concentration (μg/ml) 0.0001 [1] [%] | Inhibition (%) at terbinafine concentration (μg/ml) 0.001 [1] [%] | Inhibition (%) at terbinafine concentration (μg/ml) 0.01 [1] [%] | Inhibition (%) at terbinafine concentration (μg/ml) 0.1 [1] [%] | Inhibition (%) at terbinafine concentration (μg/ml) 1 [1] [%] | Inhibition (%) at terbinafine concentration (μg/ml) 10 [1] [%] | presence in the nail matrix [2] | % crossreactivity [1] |
| --- | --- | --- | --- | --- | --- | --- | --- | --- |
| CN(C/C=C/C#CC(C)(C)C(=O)O)Cc1cccc2ccccc12 [Carboxy-terbinafine, (E)-2,2-dimethyl-7-[methyl(naphthalen-1-ylmethyl)amino]hept-5-en-3-ynoic acid] | 0.85 | 2.11 | 4.30 | 25.8 | 63.8 | 89.2 | no hint for the presence | – |
| CC(C)(C#C/C=C/CNCc1cccc2ccccc12)C(=O)O [Desmethyl-carboxy-terbinafine, (E)-2,2-dimethyl-7-[(naphthalen-1-ylmethyl)amino]hept-5-en-3-ynoic acid] | 2.81 | 1.38 | 3.74 | 4.40 | 3.85 | 12.1 | – | not detectable |
| CC(C)(C#C/C=C/CNCc1cccc2ccccc12)CO [Desmethyl-hydroxy-terbinafine, (E)-2,2-dimethyl-7-[(naphthalen-1-ylmethyl)amino]hept-5-en-3-yn-1-ol] | 3.60 | 0.79 | 1.60 | 5.30 | 15.7 | 58.0 | no hint for the presence | 4.5% |
| CC(C)(C)C#C/C=C/CNCc1cccc2ccccc12 [Desmethyl-terbinafine ch, (E)-N-(6,6-dimethylhept-2-en-4-ynyl)-1-naphthalenemethanamine] | −0.45 | −0.14 | 1.55 | 1.22 | 5.96 | 7.87 | measurable | not detectable |
| CN(C/C=C/C#CC(C)(C)CO)Cc1cccc2ccccc12 [Hydroxy-terbinafine, (E)-2,2-dimethyl-7-[methyl(naphthalen-1-ylmethyl)amino]hept-5-en-3-yn-1-ol] | 0.40 | 0.56 | 3.74 | 72.5 | 92.9 | 93.0 | no hint for the presence | – |
| CN(C/C=C/C#CC(C)(C)C)Cc1cccc2ccccc12 [Terbinafine ch, (E)-N-(6,6-dimethylhept-2-en-4-ynyl)-N-methyl-1-naphthalene methanamine] | 0.99 | −1.92 | 2.70 | 31.5 | 73.8 | 92.6 | – | – |
